# Assay results as given in article PMC7307906, “Macrocyclic Modalities Combining Peptide Epitopes and Natural Product Fragments” (Journal of the American Chemical Society, 2020).
# Where two headings read alike, the source gives them in different places. Bridges are numbered along the chain shown (N, C = ends). Where no end group is shown, it is not given here. [ ]: non-standard residue; d: D form. pyrrolidinyl‑spirobarbiturate (VII) = not defined here; N‑phenyl fused di‑pyrrolidine (II) = not defined here; N‑methyl fused di‑pyrrolidine (I) = not defined here; ortho ether aromatic unit (VIII) = not defined here; NMeF = CN[C@@H](Cc1ccccc1)C(=O)O; NMeL = CN[C@@H](CC(C)C)C(=O)O
# T1: Recombinant human SPSB2 (Homo sapiens, UniProt Q99619)
# T1 construct: purchased Abcam ab134592
# T1 sequence (Q99619 1-263): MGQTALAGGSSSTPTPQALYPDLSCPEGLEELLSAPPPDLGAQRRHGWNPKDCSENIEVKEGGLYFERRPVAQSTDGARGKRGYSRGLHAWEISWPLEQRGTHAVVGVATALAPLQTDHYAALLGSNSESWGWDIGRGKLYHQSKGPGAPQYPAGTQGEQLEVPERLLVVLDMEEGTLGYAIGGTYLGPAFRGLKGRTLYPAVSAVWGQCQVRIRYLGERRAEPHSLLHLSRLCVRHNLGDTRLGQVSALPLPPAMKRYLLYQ
# T2: SPSB2 (Homo sapiens, UniProt Q99619)
# T2 chain: T1 sequence (Q99619 1-263)
# B1: PepNat D7-major (peptide)
# chain: [NMeF]DINNNKG-NH2
# modifications: bridge (positions not given here) via pyrrolidinyl‑spirobarbiturate (VII); reading uncertain; also: macrocycle via pyrrolidinyl-spirobarbiturate (VII)
# B2: PepNat D2-major (peptide)
# chain: [NMeF]DINNNKG-NH2
# modifications: bridge (positions not given here) via N‑phenyl fused di‑pyrrolidine (II); reading uncertain; also: macrocycle via N-phenyl fused di-pyrrolidine (II)
# B3: PepNat D12-major (peptide)
# chain: [NMeL]DINNNKG-NH2
# modifications: bridge (positions not given here) via N‑methyl fused di‑pyrrolidine (I); reading uncertain; also: macrocycle via N-methyl fused di-pyrrolidine (I)
# B4: cyclic peptidomimetic 26 (peptide)
# chain: DINNN
# modifications: bridge (positions not given here) via ortho ether aromatic unit (VIII); reading uncertain; also: cyclized via ortho ether aromatic unit (VIII), attachment points not given here
# Tests used:
# [1] = biological target: T1, Recombinant human SPSB2; assay: Surface plasmon resonance (SPR) binding to immobilized hSPSB2; conditions: for Kd: hSPSB2, mean ± SEM of three independent experiments; for fold loss of binding for the minor diastereomer: SPR KD, hSPSB2, minor versus major diastereomer; for fold improved binding affinity compared to disulfide-bridged peptide 24: hSPSB2, versus 24
# Procedure: Example sensorgrams for selected PepNats D1−D4, D7, D8, D10, D12 and D18 interacting with immobilized hSPSB2 using SPR (red). Each PepNat was injected at 0.020 µM, 0.078 µM, 0.313 µM, 1.25 µM and 5 µM concentration in quick succession followed by a longer dissociation time. A binding kinetic model was fitted to each experimental trace (black). All experiments were conducted in triplicates. […]
# to the elution profile of the crude product . The relevant fractions containing the desired product were collected, analyzed by RP-HPLC-MS and accordingly pooled and lyophilized.
# HRMS were obtained on a Thermo Scientific LTQ Fleet Orbitrap mass spectrometer coupled to an Accela HPLC-System (HPLC column: Hypersyl GOLD, 50 mm x 1 mm, particle size 1.9 μm) equipped with an electron spray ionization source (ESI). The mass detection was recorded in the range of […]
# 2) B) Biochemical Assays Materials and Methods
# Surface Plasmon Resonance (SPR)
# All SPR experiments were conducted on a Biacore T200, S200 or 8K instrument (GE Healthcare) at 20 °C using HBS-P+ as running buffer (GE Healthcare). A CM5 sensor chip (GE Healthcare) was conditioned three times at 60 s using 50 mM NaOH, 1 M NaCl prior to standard NHS/EDC activation (e.g. amine coupling in the Biacore instruction manual) of the sensor surface for 420 s.
# Recombinant human SPSB2 (product ID: ab134592, Abcam, Cambridge, UK) was diluted to 200 nM using 10 mM Sodium acetate pH 5. 5 and injected over the activated surface for 300 s. This surface and a surface subjected to only NHS/EDC activation were deactivated using 100 mM Tris -HCl, pH 8.0. The empty surface was used as a reference surface.
# All PepNat and peptide reference interac tion experiments were conducted by diluting 10 mM DMSO stocks of PepNats and peptide references using digital dispensing (Tecan) to 10 µM, 2.5 µM, 625 nM, 156 nM and 40 nM or 1 µM, 250 nM, 63 nM, 16 nM and 4 nM. All concentrations were serially injected ov er both the SPSB2 containing - and empty surfaces using single -cycle kinetics (GE Healthcare). The resulting sensorgrams were reference - and blank subtracted prior to fitting of the data using a binding kinetic model (Biacore evaluation software).
# DNA constructs, cell culturing, transfections and generation of stable cell lines DNA constructs and cell lines were employed as previously described by Durek et al.7 “cDNAs encoding human MC1 (Genbank accession number NM_002386), MC3 (NM_019888), and MC4 (NM_005912) and MC5 (NM_005913) were cloned into the pcDNA4/TO vector (ThermoFisher). In the constructs, a consensus Kozak sequence (GCCACC) was incorporated immediately before the start ATG. DNA was amplified, isolated and sequenced using standard techniques.
# T-Rex™-293 cells (ThermoFisher) were cultured in DMEM medium, supplemented with 10% foetal bovine serum and 5 µg/ml blasticidin at 37°C in a humidified atmosphere with 10% CO2.
# Lipofectamine 2000 (ThermoFisher) was used for transfections according to the manufacturer’s recommendations. Resistant polyclonal populations were generated by selection with Zeocin (0.3 mg/ml, ThermoFisher) for about two weeks after transfection. Individual clones were iso lated using flow cytometry, subsequently expanded, tested for responsiveness to [Nle 4, DPhe7]-α-Melanocyte Stimulating Hormone (NDP-α-MSH) and cryopreserved.” To induce receptor
# [2] = the molecule shown is the open-chain precursor, amine bond, 37-membered ring, then NaBH3CN, DMF, resin, 25.0 °C
# [3] = the molecule shown is the open-chain precursor, other bond, 37-membered ring, CH(OMe)3/Et3N, DMF, THF, resin, 25.0 °C, with chain assembly
# [4] = biological target: T2, SPSB2; assay: SPR
molecule,measurement,setting,value
"CC[C@H](C)[C@@H]1NC(=O)[C@H](CC(=O)O)NC(=O)[C@H](Cc2ccccc2)N(C)C(=O)[C@@H]2N[C@H](c3ccc(cc3)C(=O)NCC[C@@H](C(=O)NCC(N)=O)NC(=O)[C@H](CC(N)=O)NC(=O)[C@H](CC(N)=O)NC(=O)[C@H](CC(N)=O)NC1=O)[C@@H]1C(=O)N(C)C(=O)[C@@H]12 [D9-major, [I-FDINNNDab ]G]",Kd,[1]; SPR,66 ± 8 nM
"CC[C@H](C)[C@@H]1NC(=O)[C@H](CC(=O)O)NC(=O)[C@@H](Cc2ccccc2)N(C)C(=O)[C@@H]2N[C@H](c3ccc(cc3)C(=O)NCCCC[C@@H](C(=O)NCC(N)=O)NC(=O)[C@H](CC(N)=O)NC(=O)[C@H](CC(N)=O)NC(=O)[C@H](CC(N)=O)NC1=O)[C@@H]1C(=O)N(C)C(=O)[C@@H]12 [D15-major, [I-fDINNNK ]G]",Kd,[1]; SPR,> 10000 nM
"CC[C@H](C)[C@@H]1NC(=O)[C@H](CC(=O)O)NC(=O)[C@H](C(C)C)N(C)C(=O)[C@H]2N[C@@H](c3ccc(cc3)C(=O)NCCCC[C@@H](C(=O)NCC(N)=O)NC(=O)[C@H](CC(N)=O)NC(=O)[C@H](CC(N)=O)NC(=O)[C@H](CC(N)=O)NC1=O)[C@H]1C(=O)N(c3ccccc3)C(=O)[C@H]12 [D18-minor, [II-VDINNNK ]G]",fold loss of binding for the minor diastereomer,[1],63 fold
"CC[C@H](C)[C@@H]1NC(=O)[C@H](CC(=O)O)NC(=O)[C@H](C(C)C)N(C)C(=O)[C@@H]2N[C@H](c3ccc(cc3)C(=O)NCCCC[C@@H](C(=O)NCC(N)=O)NC(=O)[C@H](CC(N)=O)NC(=O)[C@H](CC(N)=O)NC(=O)[C@H](CC(N)=O)NC1=O)[C@@H]1C(=O)N(c3ccccc3)C(=O)[C@@H]12 [D18-major, [II-VDINNNK ]G]",fold improved binding affinity compared to disulfide-bridged peptide 24,[1]; ratio of SPR KD,7 fold
same,fold improved binding affinity compared to cyclic peptide 25,"[1]; ratio of SPR KD, hSPSB2, versus 25",36 fold
same,fold better affinity than 27,"[1]; ratio of SPR KD, hSPSB2, versus 27",40 fold
"CC[C@H](C)[C@@H]1NC(=O)[C@H](CC(=O)O)NC(=O)[C@H](Cc2ccccc2)N(C)C(=O)[C@@H]2N[C@H](c3ccc(cc3)C(=O)NCCCC[C@@H](C(=O)NCC(N)=O)NC(=O)[C@H](CC(N)=O)NC(=O)[C@H](CC(N)=O)NC(=O)[C@H](CC(N)=O)NC1=O)C1(C(=O)N(C)C(=O)N(C)C1=O)[C@H]2c1ccccc1 [D7-major, [VII-FDINNNK ]G]",fold improved binding affinity compared to disulfide-bridged peptide 24,[1]; ratio of SPR KD,4 fold
same,fold higher affinity compared to ortho ether aromatic unit analogue 26,"[1]; ratio of SPR KD, hSPSB2, versus 26",46 fold
"CC[C@H](C)[C@@H]1NC(=O)[C@H](CC(=O)O)NC(=O)[C@H](Cc2ccccc2)N(C)C(=O)[C@@H]2N[C@H](c3ccc(cc3)C(=O)NC[C@@H](C(=O)NCC(N)=O)NC(=O)[C@H](CC(N)=O)NC(=O)[C@H](CC(N)=O)NC(=O)[C@H](CC(N)=O)NC1=O)[C@@H]1C(=O)N(C)C(=O)[C@@H]12 [D10-major, [I-FDINNNDap ]G]",Kd,[1]; SPR,72 ± 16 nM
"CC[C@H](C)[C@@H]1NC(=O)[C@H](CC(=O)O)NC(=O)[C@H](C(C)C)N(C)C(=O)[C@H]2N[C@@H](c3ccc(cc3)C(=O)NCCCC[C@@H](C(=O)NCC(N)=O)NC(=O)[C@H](CC(N)=O)NC(=O)[C@H](CC(N)=O)NC(=O)[C@H](CC(N)=O)NC1=O)[C@H]1C(=O)N(C)C(=O)[C@H]12 [D13-minor, [I-VDINNNK ]G]",fold loss of binding for the minor diastereomer,[1],5 fold
H-Gly-MePhe-Ala-Leu-Phe-Pro-Gly-Phe-Lys(4-formylbenzoyl)-Gly-resin,"ring closure, conversion",[2]; 1% AcOH,91%
same,"ring closure, conversion",[2]; 5% AcOH,99%
same,"ring closure, conversion",[2]; Et3N/4A MS,4%
same,"ring closure, yield after HPLC",[3]; then 10/LiBr/Et3N,14%
same,"ring closure, yield after HPLC",[3]; then 11/LiBr/Et3N,8%
"CC[C@H](C)[C@@H]1NC(=O)[C@H](CC(=O)O)NC(=O)[C@H](Cc2ccccc2)N(C)C(=O)[C@@H]2N[C@H](c3ccc(cc3)C(=O)NCCC[C@@H](C(=O)NCC(N)=O)NC(=O)[C@H](CC(N)=O)NC(=O)[C@H](CC(N)=O)NC(=O)[C@H](CC(N)=O)NC1=O)[C@@H]1C(=O)N(C)C(=O)[C@@H]12 [D8-major, [I-FDINNNOrn ]G]",Kd,[1]; SPR,282 ± 93 nM
"CC[C@H](C)[C@@H]1NC(=O)[C@H](CC(=O)O)NC(=O)[C@H](Cc2ccccc2)N(C)C(=O)[C@H]2N[C@@H](c3ccc(cc3)C(=O)NCCCC[C@@H](C(=O)NCC(N)=O)NC(=O)[C@H](CC(N)=O)NC(=O)[C@H](CC(N)=O)NC(=O)[C@H](CC(N)=O)NC1=O)[C@@H](C(=O)OC)[C@H]2C(=O)OC [D4-minor, [IV-FDINNNK ]G]",binding to SPSB2 (in words),"[1]; SPR, hSPSB2",did not bind
same,Kd,[1]; SPR,> 10000 nM
"CC[C@H](C)[C@@H]1NC(=O)[C@H](CC(=O)O)NC(=O)[C@H](Cc2ccccc2)N(C)C(=O)[C@@H]2N[C@H](c3ccc(cc3)C(=O)NC[C@@H](C(=O)NCC(N)=O)NC(=O)[C@H](CC(N)=O)NC(=O)[C@H](CC(N)=O)NC(=O)[C@H](CC(N)=O)NC1=O)[C@@H]1C(=O)N(c3ccccc3)C(=O)[C@@H]12 [D17-major, [II-FDINNNDap ]G]",Kd,[1]; SPR,1080 ± 76 nM
B1,Kd,[4],3.8 nM
B2,Kd,[4],231 nM
"VDINNNKG (macrocycle via N-phenyl fused di-pyrrolidine (II) minor diastereomer, N-Me-Val) [PepNat D18-minor]",Kd,[4],139 nM
Ac-DINNN [iNOS peptide 23],Kd,[4],237 nM
B3,Kd,[4],10 nM
B4,Kd,[4],175 nM
CVDINNNC (disulfide 1-8 (inferred)) [cyclic peptide 24],Kd,[4],16 nM
